Results on four molecules are retold here after article PMC9188586, “Design, synthesis and evaluation of novel tetrahydropyridothienopyrimidin-ureas as cytotoxic and anti-angiogenic agents” (Scientific Reports, 2022).

Values joined by “and” are separate entries in the source; they are usually repeats but may differ in a detail not shown here. Equal values may be shown once.

Experiment [1] relates to MCF-7 (breast cancer). The experiment is described as follows: MTT antiproliferative assay, MCF-7. It is filed as cell-based. The note with it: Homo sapiens, MCF7, 48 h incubation. The protocol: (§1) Two series of new tetrahydropyridothienopyrimidines were evaluated for their cytotoxicity against a panel of cell lines, including MCF-7 (breast cancer), SW480 (colon cancer), PC-3 (prostate cancer), HEPG-2 (liver cancer) and HUVEC (human umbilical vein endothelial cell) using 3-(4,5-dimethyl- thiazol-2-yl)-2,5-diphenyltetrazolium bromide (MTT) assay. Sorafenib was used as a positive control. The cytotoxicity is expressed as the concentration that inhibits 50% of cell viability (IC50). […] The preliminary SAR is evaluated on the basis of cytotoxicity results of phenyl derivatives (11a–k) and pyridine derivatives (11l–11y).The mesomeric effect didn’t improve the cytotoxicity of compound 11d in the first series.
(§2) Cytotoxicity of the compounds was measured by detecting the ability of cells in transforming MTT into a purple formazan dye. The different cell lines were provided by the National Cell Bank of Iran (Pastor Institute, Tehran, Iran). The required materials and reagents were purchased from Sigma. After the cell culture in RPMI-1640 medium and DMEM containing 10% FBS (Gibco, Milano, Italy), the suspension of MCF-7 (7000) and other cells (5000) were poured into 96 well plates and incubated in a humidified incubator containing 5% CO2 at 37 °C for 24 h. Subsequently, a solution of the compounds in DMSO was added to these plates and incubated for 48 h. After incubation, the solution of 5% 3-(4,5-Dimethyl-2-thiazolyl)-2,5-diphenyl-2H-tetrazolium bromide (MTT) was added to all the wells and incubation was continued for another 4 h. The record of color intensity of the formazan solution was at 570 nm by Bio-Rad microplate reader (Model 680) which reflects the cell growth condition.

Experiment [2] has as its system PC-3 (prostate cancer). Kind of experiment: MTT antiproliferative assay, PC-3. It counts as cell-based. The note with it: 48 h incubation. The protocol: as §1, §2
Background: Tetrazolium dyes change colour on reduction, which living cells bring about.

For experiment [3], the system named is SW480 (colon cancer). Kind of experiment: MTT antiproliferative assay, SW480. Particulars: Homo sapiens, SW480, 48 h incubation. It is filed as cell-based. As for the experimental part:
as §1, §2

Experiment [4] deals with HEPG-2 (liver cancer). Kind of experiment: MTT antiproliferative assay, HEPG-2. It counts as cell-based. The note with it: Homo sapiens, HepG2, 48 h incubation. The protocol:
as §1, §2

Experiment [5] deals with HUVEC (human umbilical vein endothelial cell). The experiment is described as follows: MTT antiproliferative assay, HUVEC. It is filed as cell-based. Particulars: Homo sapiens, HUVEC; MTT assay, 48 h incubation. The protocol: as §1, §2
Experiment [6] relates to MRC5 normal cell line. Kind of experiment: MTT cytotoxicity against normal cell line MRC5. It is filed as cell-based. The note with it: for IC50: Homo sapiens, MRC5, MTT assay, normal cell line. The protocol:
as §2

Experiment [7] relates to HUVEC cells. The experiment is described as follows: Annexin V/PI flow cytometry apoptosis analysis, HUVEC. It counts as cell-based, human. Particulars: IC50 concentration, 48 h, one replicate. As for the experimental part:
(§3) The experiment was conducted by flow cytometry analysis of […] cells with propidium iodide (PI) and annexin V-fluorescein isothiocyanate (annexine V-FITC).
(§4) Then, cells were trypsinized, rinsed with phosphate-bufferede buffered saline (PBS) and then centrifuged at 1200 rpm for 3 min. After this, the binding buffer (500 μL) was added to the resulting cells, followed by addition and mixing with […] and PI (5 μL). After this, the samples were incubated in dark for 10 to 15 min at room temperature, and then the cellular analysis was measured by flow cytometer (FACS Calibur Bectone-Dickinson).

The test system of experiment [8] is MCF-7 cells. Kind of experiment: Cell cycle analysis by flow cytometry, MCF-7. It is filed as cell-based. The note with it: MCF-7, IC50 concentration, 48 h. The protocol: (§5) We can conclude that compound 11n induces cellular apoptosis in […]. An increase in sub-G1 area is an indicative of apoptosis.
(§6) After trypsinization and rinsing with PBS, the cells were centrifuged at 1200 rpm for 5 min and then incubated with PBS and fixed in ice-cooled 70% ethanol. After washing with PBS, the cells were resuspended in RNase A (0.1 mg/mL) and incubated for 5 h. Then, staining with PI ([…]) and incubation for 15 min were performed. By using Novocyte flow cytometer (ACEA Biosciences) the analysis was done and the calculation of cell cycle distributions was done by NovoExpress 1.1.0 software.
Background: A flow cytometer gives signals particle by particle.

Experiment [9] relates to HUVEC and MCF-7 cells. Kind of experiment: Cell cycle analysis by flow cytometry, cell line not given. It counts as cell-based. The note with it: cell line not stated, IC50 concentration, 48 h. As for the experimental part:
An increase in sub-G1 area is an indicative of apoptosis.
as §6

Experiment [10] concerns chick chorioallantoic membrane (CAM). The experiment is described as follows: Chick chorioallantoic membrane (CAM) anti-angiogenic assay. It counts as in vivo. Particulars: IC50 concentration, compared with Sorafenib as positive control. The protocol: The hydrogen bonding between NH groups of urea and target proteins were known to give rise to better inhibition of an important growth factor receptor (VEGFR-2) involved in the process of angiogenesis. Thus, the chick chorioallantoic membrane (CAM) assay was utilized as an in-vivo technique to evaluate the anti-vascular effects. Therefore, the anti-angiogenic strength of compounds were investigated by a cheap and simple CAM assay (Figs. 4, 5)[32],[33]. The anti-angiogenic strength was measured and compared with DMSO (control) and Sorafenib as a positive control.
All eggs were supplied from (Poultry Breeding Farm, Tehran, Iran). Since the allantois of the chick embryo appears at about 3.5 days of incubation, the corresponding eggs were incubated (37.5 °C, relative humidity: 55–65%). To decrease the risk of infection, the particular regions of the egg, e.g., the front side of the embryo were cleaned and sterilized with 70% EtOH. On the 6th incubation day, a false air sac was created directly over the CAM, permitting its detachment from the shell membrane. The procedure was continued through a square incision over the CAM. The prepared window in a square form (1 × 1 cm), was covered by a flexible film and then transported to the incubator. On the 8th incubation day, the particular paper discs (Whatman) were coated with target agents and placed in the central area of the corresponding window. The surface of CAM was visually evaluated on the 12th incubation day using the stereomicroscope. We decided to use the number and the length of capillary blood vessels as the index of anti-angiogenic activity. Consequently, the prepared images were analyzed by the advantageous software, Image J[22],[23].

Experiment [11] concerns MCF-7 cells. Kind of experiment: Annexin V/PI flow cytometry apoptosis analysis, MCF-7. Particulars: MCF-7, IC50 concentration, 48 h, one replicate. It is filed as cell-based. As for the experimental part: as §3, §4
The test system of experiment [12] is caspase-3. Kind of experiment: Caspase-3 level by ELISA in MCF-7 cells. It is filed as cell-based, human. Particulars: 24 h; for Casp3 conc.: 11n at 2.67 μM, Sorafenib at 7.06 μM. As for the experimental part:
The activity of caspase (cysteinyl-aspartate-specific proteases) as intracellular cell death enzymes has been characterized. So, the […] the process[28]–[31].
Caspase-3 activity was measured using a caspase-3 (Active) (human) ELISA kit, MBS450774, according to the manufacturer’s instructions.
Background: In an ELISA, binding on a coated surface is turned into a signal by an enzyme label.

The subject of experiment [13] is HUVEC cells. Kind of experiment: Cell cycle analysis by flow cytometry, HUVEC. Particulars: IC50 concentration, 48 h. It is filed as cell-based, human. As for the experimental part: as §5, §6
Experiment [14] addresses T1, VEGFR-2 (Homo sapiens, UniProt P35968).
T1 construct: endogenous in cells; host or cells: HUVEC
The experiment is described as follows: Western blot of VEGFR-2 phosphorylation in HUVECs. It is filed as cell-based. Particulars: HUVEC, IC50 concentration, after 48 and 72 h, compared to positive control. The protocol:
It was is observed that, after 48 and 72 h, the phosphorylation of VEGFR-2 decreases compared to the positive control (Fig. 7).
After thawing in […] lysis buffer and centrifuge at 1200 rpm, the loading and electrophoresis of proteins on 12% SDSPAGE was performed. Then, they transferred for 1.5 h at 100 V into a nitrocellulose membrane ([…]) and blocked with 5% blocking buffer. After incubation of antibodies at 4 ◦C for 12 h, the detection of immunoblots were performed using the enhanced chemiluminescence (ECL) method.

T1 sequence (P35968 20-1356): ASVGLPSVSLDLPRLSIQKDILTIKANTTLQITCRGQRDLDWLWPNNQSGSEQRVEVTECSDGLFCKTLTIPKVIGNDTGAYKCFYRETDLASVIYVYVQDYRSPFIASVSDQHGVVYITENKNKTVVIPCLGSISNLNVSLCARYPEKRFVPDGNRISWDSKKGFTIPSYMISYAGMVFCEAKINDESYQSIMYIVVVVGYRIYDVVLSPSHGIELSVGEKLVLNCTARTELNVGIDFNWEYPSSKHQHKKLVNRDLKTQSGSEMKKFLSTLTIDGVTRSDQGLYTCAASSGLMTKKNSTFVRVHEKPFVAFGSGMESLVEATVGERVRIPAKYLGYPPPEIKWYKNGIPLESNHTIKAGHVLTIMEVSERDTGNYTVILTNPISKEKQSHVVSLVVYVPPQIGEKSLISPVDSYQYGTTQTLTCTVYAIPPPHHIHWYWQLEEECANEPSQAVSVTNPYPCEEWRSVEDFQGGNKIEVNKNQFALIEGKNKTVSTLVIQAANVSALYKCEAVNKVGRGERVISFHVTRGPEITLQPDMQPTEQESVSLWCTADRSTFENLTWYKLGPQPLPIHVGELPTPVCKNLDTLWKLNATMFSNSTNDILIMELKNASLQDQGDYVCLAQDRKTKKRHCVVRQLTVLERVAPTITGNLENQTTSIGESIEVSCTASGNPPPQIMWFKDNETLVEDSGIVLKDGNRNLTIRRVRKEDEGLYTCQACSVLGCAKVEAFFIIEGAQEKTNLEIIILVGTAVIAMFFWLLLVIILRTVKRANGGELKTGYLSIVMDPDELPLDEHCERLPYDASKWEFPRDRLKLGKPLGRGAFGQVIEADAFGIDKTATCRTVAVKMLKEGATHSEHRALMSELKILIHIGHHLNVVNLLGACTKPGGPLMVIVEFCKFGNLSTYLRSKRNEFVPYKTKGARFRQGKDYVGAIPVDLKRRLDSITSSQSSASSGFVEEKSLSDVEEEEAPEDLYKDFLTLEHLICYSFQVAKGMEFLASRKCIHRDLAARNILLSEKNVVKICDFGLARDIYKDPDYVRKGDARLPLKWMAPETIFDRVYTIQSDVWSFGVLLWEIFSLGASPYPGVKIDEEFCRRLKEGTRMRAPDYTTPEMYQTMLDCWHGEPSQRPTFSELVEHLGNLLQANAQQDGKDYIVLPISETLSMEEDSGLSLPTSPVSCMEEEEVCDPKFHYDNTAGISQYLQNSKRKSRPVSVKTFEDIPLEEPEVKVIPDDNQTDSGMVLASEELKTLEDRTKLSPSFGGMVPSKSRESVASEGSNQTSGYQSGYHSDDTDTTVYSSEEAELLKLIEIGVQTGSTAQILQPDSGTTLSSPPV

Turning to `Cc1ccccc1NC(=O)Nc1nnc(Sc2ncnc3sc4c(c23)CCN(Cc2ccncc2)C4)s1` [Compound 11l, 1-(5-((7-(pyridin-4-ylmethyl)-5,6,7,8-tetrahydropyrido[4',3':4,5]thieno[2,3-d]pyrimidin-4-yl)thio)-1,3,4-thiadiazol-2-yl)-3-(o-tolyl)urea], the half-maximal inhibitory concentration (IC50) – broadly, the concentration that gives 50% inhibition – was determined as 2.8 ± 0.03 µM in [1]; 6.11 ± 0.08 µM in experiment [2]; 15 ± 0.38 µM in experiment [3]; 9.94 ± 0.07 µM in [4]; 2.53 ± 0.05 µM in experiment [5]; 24.8 ± 0.36 µM in experiment [6]. Moreover, in [7], the “Early apoptotic cells (Q3)” value came to 5.51%. For the same molecule, the “Late apoptotic cells (Q2)” value in experiment [7] turned out to be 89.0%. In addition, the “Percentage of cell population in the S phase” value in experiment [8] was determined as 49.8%. Besides, the “Percentage of cells in G0 phase” value in [9] was 97.6%.
In the case of `Cc1cccc(NC(=O)Nc2nnc(Sc3ncnc4sc5c(c34)CCN(Cc3ccncc3)C5)s2)c1` [Compound 11m, 1-(5-((7-(pyridin-4-ylmethyl)-5,6,7,8-tetrahydropyrido[4',3':4,5]thieno[2,3-d]pyrimidin-4-yl)thio)-1,3,4-thiadiazol-2-yl)-3-(m-tolyl)urea], the IC50 was found to be 3.35 ± 0.01 µM in [1]; 11.79 ± 0.11 µM in [2]; 61.23 ± 0.44 µM in [3]; 27.76 ± 0.13 µM in experiment [4]; 1.15 ± 0.03 µM in experiment [5]; 33.2 ± 0.44 µM in experiment [6]. For the same molecule, the “Early apoptotic cells (Q3)” value in experiment [7] is reported as 10.1%. In addition, the “Late apoptotic cells (Q2)” value in experiment [7] is on record as 52.5%. Besides, in [8], the “Percentage of cell population in the S phase” value was 32.9%. Besides, in [10], the “Inhibitory effect on growing CAM (in words)” value is “slightly weaker inhibitory effects”.
Turning to `Cc1ccc(NC(=O)Nc2nnc(Sc3ncnc4sc5c(c34)CCN(Cc3ccncc3)C5)s2)cc1` [Compound 11n, 1-(5-((7-(pyridin-4-ylmethyl)-5,6,7,8-tetrahydropyrido[4',3':4,5]thieno[2,3-d]pyrimidin-4-yl)thio)-1,3,4-thiadiazol-2-yl)-3-(p-tolyl)urea], the IC50 stood at 2.67 ± 0.21 µM in [1]; 11.35 ± 0.09 µM in experiment [2]; 6.84 ± 0.05 µM in experiment [3]; 7.2 ± 0.03 µM in experiment [4]; 2.09 ± 0.08 µM in experiment [5]; 38.1 ± 0.81 µM in experiment [6]. Moreover, in experiment [6] (IC50 value normal cell (MRC5)/IC50 value cancer cell (MCF-7)), the “SI (Selectivity Index)” value is 14 and 14.2. The “Early apoptotic cells (Q3)” value in experiment [7] amounted to 16.5%; in experiment [11] it was 22.8%. Besides, the figures for the “Late apoptotic cells (Q2)” value in experiment [7] and in experiment [11] were 79.8% and 58.2%, respectively. The same molecule gave a Casp3 conc. in experiment [12] of 3.63 ± 0.52 ng/mL. The “FLD (fold change of caspase-3 level)” value in experiment [12] (control = 1) worked out at 5.2 fold. Also, the “Percentage of cells in G0 phase” value in experiment [8] was 54.3%; in experiment [13], 65.5%. Moreover, the “Inhibitory effect on growing CAM (in words)” value in experiment [10] is “slightly weaker inhibitory effects”. Also, the “Phosphorylation of VEGFR-2 (in words)” value in [14] is listed as “decreases”.
Take `CNC(=O)c1cc(Oc2ccc(NC(=O)Nc3ccc(Cl)c(C(F)(F)F)c3)cc2)ccn1` [Sorafenib, reference compound]: the IC50 in experiment [1] is 7.06 ± 0.17 µM; in experiment [2], 5.45 ± 0.11 µM; in experiment [3], 19.8 ± 0.12 µM; in experiment [4], 29.6 ± 0.31 µM; in [5], 2.81 ± 0.71 µM. This molecule showed a Casp3 conc. in experiment [12] of 4.54 ± 0.25 ng/mL.
